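All cell lines were grown in 96-well plates and treated with compound for 48 hours. The concentration for 50% growth inhibition is given as GI50.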 Active and inactive are the calls of the source. No stated cut-off is given here; in the data, active = GI50 up to about 1.1 µM and inactive = higher.
What was measured:
Test in all cases: DTP human tumour cell line panel, 48 h
[1] = system: A498
[2] = system: DMS-273
[3] = system: HCT-116
[4] = system: HOP-18
[5] = system: HOP-92
[6] = system: K562
[7] = system: LOX IMVI
[8] = system: M19-MEL
[9] = system: MOLT-4
[10] = system: SK-MEL-2
[11] = system: SNB-75
[12] = system: UO-31

Measured: GI50

CC/C=C\C/C=C\C/C=C\CCCCCCCC(=O)OC [METHYL LINOLENATE]
inactive: [1] > 100 µM | [2] > 100 µM | [3] 91.6 µM | [4] > 100 µM | [5] > 100 µM | [6] 45.5 µM | [7] 18.9 µM | [8] > 100 µM | [9] 87.5 µM | [10] > 100 µM | [11] 67.6 µM | [12] > 100 µM
